The conditions of data set [1]: for surface tension liquid-gas: Drop volume; for mass density: 101.33 kPa, Liquid.
The nature of data set [2]: refractive index (Na D-line) (dimensionless). The settings on record: 101.33 kPa, Liquid, Standard Abbe refractometry.

Surface tension liquid-gas, mass density and refractive index data for three molecules are collected here from the NIST ThermoML archive (doi:10.1016/j.jct.2005.09.004).

Each structure is given as a SMILES string. Numbers after ± are expanded uncertainties.

One may read the surface tension liquid-gas as the work needed to enlarge the surface of a liquid by unit area. In general, mass density refers to mass per unit of volume. A word on the refractive index: it is the speed of light in vacuum divided by its phase velocity in the sample. Turning to `C1CCCC1` [cyclopentane], the values for the surface tension liquid-gas in data set [1] (283.15 K), in data set [1] (298.15 K) and in data set [1] (313.15 K) were 24.14 ± 0.3 mN/m, 22.06 ± 0.28 mN/m and 19.76 ± 0.25 mN/m, respectively. Also, the mass density in data set [1] (283.15 K) is recorded as 754.85 ± 0.77 kg/m3; in data set [1] (298.15 K), 739.74 ± 0.79 kg/m3; in data set [1] (313.15 K), 724.71 ± 0.81 kg/m3. Besides, the refractive index came to 1.41197 ± 0.00037 in data set [2] (283.15 K), 1.40335 ± 0.00037 in data set [2] (298.15 K) and 1.39451 ± 0.00037 in data set [2] (313.15 K).
Turning to `C1CCCCC1` [cyclohexane], the surface tension liquid-gas in data set [1] (283.15 K) is on record as 26.28 ± 0.3 mN/m; in data set [1] (298.15 K), 24.73 ± 0.28 mN/m; in data set [1] (313.15 K), 22.93 ± 0.26 mN/m. In addition, the mass density in data set [1] (283.15 K) is reported as 787.97 ± 0.3 kg/m3; in data set [1] (298.15 K), 773.65 ± 0.32 kg/m3; in data set [1] (313.15 K) it was 759.59 ± 0.33 kg/m3. The refractive index in data set [2] (283.15 K) amounted to 1.43182 ± 0.00031; in data set [2] (298.15 K), 1.42348 ± 0.00031; in data set [2] (313.15 K) it was 1.41498 ± 0.00031.
As for `C1COCCO1` [1,4-dioxane], the surface tension liquid-gas in data set [1] (283.15 K) turned out to be 35.09 ± 0.39 mN/m; in data set [1] (298.15 K), 33.23 ± 0.37 mN/m; in data set [1] (313.15 K) it was 31.23 ± 0.35 mN/m. Further, the mass density was determined as 1045.16 ± 0.14 kg/m3 in data set [1] (283.15 K), 1027.85 ± 0.12 kg/m3 in data set [1] (298.15 K) and 1010.99 ± 0.11 kg/m3 in data set [1] (313.15 K). Moreover, the refractive index is 1.42721 ± 0.00031 in data set [2] (283.15 K), 1.41992 ± 0.00031 in data set [2] (298.15 K) and 1.41256 ± 0.00031 in data set [2] (313.15 K).
